Assay results as given in patent US8318737B2, “Compounds and compositions for treating cancer” (Canthera Therapeutics Inc., priority 2009, dated 2012).
In brackets after ≈: the same amount, converted by molar mass. Structures can show the parent of a compound that is named as a salt.

How the values were obtained:
[1] = solubility in water; format: physicochemical
[2] = precipitation of DMSO solution diluted 1:10 in phosphate buffered saline or water; format: physicochemical
Method: The compounds of the present invention may be produced using piperlongumine as a starting material yet offer numerous advantages over piperlongumine. […] The compounds of the instant invention are highly soluble in water at concentration of at least 25 mg/mL facilitating pharmaceutical preparation and delivery. Many chemotherapeutic agents transiently increase ROS levels in both cancer cells and normal cells.

COc1cc(/C=C/C(=O)N2CCC=CC2=O)cc(OC)c1OC [piperlongumine, Piperlongumine]
solubility in water [1]: 0.1 mg/mL (≈ 315 µM)
concentration in DMSO that precipitated out when diluted 1:10 [2]: more than 0.25 mg/ml

COc1cc(/C=C/C(=O)N2CCC=CC2=O)cc(OC)c1OCCN1CCOCC1 [tartrate salt of compound one]
solubility [1]: 100 mg/mL
